Assay results published in ChEMBL document CHEMBL6092203, “Discovery of Novel PROTAC-Based HPK1 Degraders with High Potency and Selectivity for Cancer Immunotherapy” (J Med Chem, 2024).
Calls of active or inactive are those of the source. The rule behind the calls is not given here.

Experiments:
Jurkat [1] = test: Effect on p-SLP76 at Y145 residue protein expression in human Jurkat cells at 1 to 2000 nM incubated for 24 hrs by Western blotting analysis; assay type: functional, cell-based; conditions: dose 1-2000 nM
[2] = biological target: Protein cereblon/Mitogen-activated protein kinase kinase kinase kinase 1 (Homo sapiens, UniProt Q92918+Q96SW2); test: PROTAC activity at CRBN/HPK1 in human Jurkat cells assessed as HPK1 degradation at 0.01 uM pretreated with MG132 for 4 hrs followed by compound addition and measured after 24 hrs by Western blotting analysis; assay type: cell-based
Sequence of Protein cereblon/Mitogen-activated protein kinase kinase kinase kinase 1 (Q92918 whole entry, looked up): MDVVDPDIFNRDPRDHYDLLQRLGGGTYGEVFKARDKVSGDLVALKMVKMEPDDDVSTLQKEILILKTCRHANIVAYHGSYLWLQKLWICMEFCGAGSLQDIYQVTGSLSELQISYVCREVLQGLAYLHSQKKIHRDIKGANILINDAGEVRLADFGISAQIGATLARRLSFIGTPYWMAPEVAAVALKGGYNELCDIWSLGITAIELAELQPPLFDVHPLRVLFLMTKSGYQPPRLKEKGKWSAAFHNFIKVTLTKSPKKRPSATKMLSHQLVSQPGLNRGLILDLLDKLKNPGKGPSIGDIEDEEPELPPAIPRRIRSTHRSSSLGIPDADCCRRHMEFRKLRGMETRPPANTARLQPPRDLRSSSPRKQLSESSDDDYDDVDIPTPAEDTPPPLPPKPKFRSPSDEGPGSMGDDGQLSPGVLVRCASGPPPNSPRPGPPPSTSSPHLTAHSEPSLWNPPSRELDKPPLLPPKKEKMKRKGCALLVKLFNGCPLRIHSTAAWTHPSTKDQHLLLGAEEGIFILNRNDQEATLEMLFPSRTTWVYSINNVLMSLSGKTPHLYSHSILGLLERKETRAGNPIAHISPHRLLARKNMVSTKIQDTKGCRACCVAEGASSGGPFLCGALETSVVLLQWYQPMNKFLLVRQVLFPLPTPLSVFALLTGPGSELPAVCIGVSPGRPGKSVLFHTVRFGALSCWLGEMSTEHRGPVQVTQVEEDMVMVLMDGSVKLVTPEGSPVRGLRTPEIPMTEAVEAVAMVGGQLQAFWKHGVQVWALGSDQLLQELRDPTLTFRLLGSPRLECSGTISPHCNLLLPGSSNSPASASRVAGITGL
Sequence of Protein cereblon/Mitogen-activated protein kinase kinase kinase kinase 1 (Q96SW2 whole entry, looked up): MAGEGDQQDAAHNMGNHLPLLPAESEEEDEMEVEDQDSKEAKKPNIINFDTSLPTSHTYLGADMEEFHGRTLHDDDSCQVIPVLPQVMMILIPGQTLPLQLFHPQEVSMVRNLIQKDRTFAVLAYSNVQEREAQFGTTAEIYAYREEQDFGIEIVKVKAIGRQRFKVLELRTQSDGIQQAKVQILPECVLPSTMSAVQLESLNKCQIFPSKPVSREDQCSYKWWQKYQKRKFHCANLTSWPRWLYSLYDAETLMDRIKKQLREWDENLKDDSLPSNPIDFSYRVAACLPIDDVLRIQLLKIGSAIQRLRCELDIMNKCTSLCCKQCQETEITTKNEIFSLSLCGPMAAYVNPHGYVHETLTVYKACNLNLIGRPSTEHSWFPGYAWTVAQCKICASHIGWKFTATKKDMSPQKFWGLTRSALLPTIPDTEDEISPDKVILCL

[3] = Induction of IL-2 secretion in human PBMCs incubated for 24 hrs by ELISA; assay type: functional, cell-based, PBMC
Jurkat [4] = test: Induction of GLK degradation in human Jurkat cells at 1 to 1000 nM incubated for 24 hrs by Western blotting analysis; assay type: cell-based; conditions: dose 1-1000 nM
[5] = Plasma protein binding in mouse at 10 uM incubated for 6 hrs by equilibrium dialysis based LC-MS/MS method; assay type: ADME, cell-free; conditions: read-out: PPB (converted)
[6] = Plasma protein binding in monkey at 10 uM incubated for 6 hrs by equilibrium dialysis based LC-MS/MS method; assay type: ADME, cell-free, Macaca mulatta; conditions: rhesus monkey, read-out: PPB (converted)
[7] = Metabolic stability in human hepatocytes assessed as intrinsic clearance at 1 uM incubated for 90 mins by LC-MS/MS method; assay type: ADME, cell-based, Hepatocyte; conditions: 1.5 h
[8] = Half-life in C57BL/6J mouse at 2 mg/kg, iv measured upto 24 hrs by LC-MS analysis; conditions: in vivo
[9] = Clearance in C57BL/6J mouse at 2 mg/kg, iv measured upto 24 hrs by LC-MS analysis; conditions: in vivo
[10] = AUCinfinity in C57BL/6J mouse at 10 mg/kg, po measured upto 24 hrs by LC-MS analysis; assay type: ADME, organism-based; conditions: in vivo
[11] = Initial plasma concentration in Sprague-Dawley rat at 2 mg/kg, iv measured upto 24 hrs by LC-MS analysis; assay type: ADME, organism-based
[12] = AUCinfinity in Beagle dog at 5 mg/kg, po measured upto 24 hrs by LC-MS analysis; assay type: ADME, organism-based, Canis lupus familiaris; conditions: in vivo
[13] = Drug metabolism in rat hepatocytes assessed as phase 1 metabolites formation at 10 uM incubated for 120 mins by UHPLC-UV/MS/MS method; assay type: ADME, cell-based, Hepatocyte; conditions: 2 h
[14] = Drug metabolism in mouse hepatocytes assessed as phase 1 metabolites formation at 10 uM incubated for 120 mins by UHPLC-UV/MS/MS method; assay type: ADME, cell-based, Hepatocyte; conditions: 2 h
[15] = Drug metabolism in monkey hepatocytes assessed as phase 1 metabolites formation at 10 uM incubated for 120 mins by UHPLC-UV/MS/MS method; assay type: ADME, cell-based, Macaca mulatta, Hepatocyte; conditions: rhesus monkey, 2 h
[16] = Drug metabolism in rat hepatocytes assessed as phase 2 metabolites formation at 10 uM incubated for 120 mins by UHPLC-UV/MS/MS method; assay type: ADME, cell-based, Hepatocyte; conditions: 2 h
[17] = Effect on action potential in rabbit purkinje fibers; assay type: toxicity, tissue-based, Oryctolagus cuniculus, Purkinje fiber
[18] = Clearance in mouse relative to hepatic blood flow; conditions: in vivo
[19] = Drug distribution in rat brain measured after 2 hrs; assay type: ADME, tissue-based; conditions: in vivo
MC-38 [20] = test: Antitumor activity against mouse MC38 cells implanted in C57BL/6J mouse assessed as tumor growth inhibition at 0.5 mg/kg, IG BID administered for 3 to 4 weeks; assay type: functional, organism-based; conditions: time 3-4 weeks
MC-38 [21] = test: Antitumor activity against mouse MC38 cells implanted in C57BL/6J mouse assessed as tumor growth inhibition at 1 mg/kg, po BID measured after 4 weeks; assay type: functional; conditions: MC-38, 672 h, read-out: TGI
MC-38 [22] = test: Antitumor activity against mouse MC38 cells implanted in C57BL/6J mouse assessed as tumor growth inhibition at 0.5 mg/kg, po BID measured after 4 weeks; assay type: functional; conditions: MC-38, 672 h, read-out: TGI
MC-38 [23] = test: Synergistic antitumor activity against mouse MC38 cells implanted in C57BL/6J mouse assessed as tumor growth inhibition at 100 mg/kg, po QD measured after 4 weeks in presence of 5 mg/kg anti-PD1 and measured twice a week; assay type: functional; conditions: MC-38, 672 h, read-out: TGI
MC-38 [24] = test: Antitumor activity against mouse MC38 cells implanted in C57BL/6J mouse assessed as reduction in tumor volume at 100 mg/kg, po QD administered for 3 to 4 weeks (reference value: 1549.22 +/- 217.92 mm3); assay type: functional; conditions: time 3-4 weeks
MC-38 [25] = test: Antitumor activity against mouse MC38 cells implanted in C57BL/6J mouse assessed as reduction in tumor volume at 0.5 mg/kg, po BID administered for 3 to 4 weeks (reference value: 1549.22 +/- 217.92 mm3); assay type: functional; conditions: time 3-4 weeks
MC-38 [26] = test: Synergistic antitumor activity against mouse MC38 cells implanted in C57BL/6J mouse assessed as reduction in tumor volume at 100 mg/kg, po QD administered for 3 to 4 weeks in presence of 5 mg/kg anti-PD1 and measured twice a week (reference value: 1549.22 +/- 217.92 mm3); assay type: functional; conditions: time 3-4 weeks
MC-38 [27] = test: Antitumor activity against mouse MC38 cells implanted in C57BL/6J mouse assessed as reduction in tumor weight at 100 mg/kg, po QD administered for 3 to 4 weeks (reference value: 1.79 +/- 0.24 g); assay type: functional; conditions: time 3-4 weeks
MC-38 [28] = test: Antitumor activity against mouse MC38 cells implanted in C57BL/6J mouse assessed as tumor weight inhibition rate at 1 mg/kg, po BID measured after 4 weeks; assay type: functional; design: scale not given: the % may be the effect or the level left
MC-38 [29] = test: Synergistic antitumor activity against mouse MC38 cells implanted in C57BL/6J mouse assessed as tumor weight inhibition rate at 0.5 mg/kg, po bid measured after 4 weeks in presence of 5 mg/kg anti-PD1 and measured twice a week; assay type: functional; design: scale not given: the % may be the effect or the level left
[30] = Tmax in female Sprague-Dawley rat at 2 mg/kg/day, po measured at day 1; assay type: ADME, organism-based; conditions: in vivo, time 1 day
[31] = Tmax in female Sprague-Dawley rat at 30 mg/kg/day, po measured at day 1; assay type: ADME, organism-based; conditions: in vivo, time 1 day
[32] = Tmax in male Sprague-Dawley rat at 30 mg/kg/day, po measured at day 14; assay type: ADME, organism-based; conditions: in vivo, time 14 day
[33] = Tmax in female Sprague-Dawley rat at 100 mg/kg/day, po measured at day 14; assay type: ADME, organism-based; conditions: in vivo, time 14 day
in vivo [34] = conditions: Sprague-Dawley, rat, po, 1 mg/kg
in vivo [35] = conditions: beagle, dog, po, 5 mg/kg
Description: Cmax in Beagle dog at 5 mg/kg, po measured upto 24 hrs by LC-MS analysis

in vivo [36] = conditions: female, Sprague-Dawley, rat, po, 100 mg/kg
in vivo [37] = conditions: female, Sprague-Dawley, rat, po, 2 mg/kg
in vivo [38] = conditions: male, Sprague-Dawley, rat, po, 100 mg/kg
in vivo [39] = conditions: male, Sprague-Dawley, rat, po, 100 mg/kg; remark: listed apart in the source
in vitro [40] = conditions: mouse, liver microsomes
in vitro [41] = conditions: rhesus monkey, liver microsomes
in vitro [42] = conditions: rhesus monkey, hepatocytes

Activity [2]: inactive | fraction unbound at 6 h, 10 µM [5]: 0.0025 | fraction unbound at 6 h, 10 µM [6]: 0.0002 | CLH [7]: 1.92 µL/min/mg | half-life at 24 h [8]: 1.17 h | clearance at 24 h [9]: 6 mL/min/kg | AUC(0-inf) [10]: 12100 ng·h/mL | C0 at 24 h [11]: 3380 ng/mL | AUC(0-inf) [12]: 796 ng·h/mL | Drug metabolism [13]: metabolite_detected | Drug metabolism [14]: metabolite_detected | Drug metabolism [15]: metabolite_detected | Drug metabolism [16]: metabolite_detected | clearance [18]: 27 mL/min/kg | Drug uptake [19]: Active | Tmax [30]: 6 h | Tmax [31]: 8 h | Tmax [32]: 8 h | Tmax [33]: 8.67 h | Cmax at 24 h (in vivo [34]): 98.7 ng/mL | Cmax at 24 h (in vivo [35]): 111 ng/mL | Cmax at 24 h (in vivo [36]): 11200 ng/mL | Cmax at 336 h (in vivo [37]): 140 ng/mL | Cmax at 336 h (in vivo [38]): 11100 ng/mL | AUC at 336 h (in vivo [39]): 151000 ng·h/mL | half-life at 0.75 h, 1 µM (in vitro [40]): 1.73 h | half-life at 0.75 h, 1 µM (in vitro [41]): 0.607 h | half-life at 1.5 h, 1 µM (in vitro [42]): 1.3 h
Compound: O=C1CCN(c2cc(C(=O)N3CCC(CC4CCN(c5ccc(-c6cnc7[nH]cc(-c8cnn(CC(F)(F)F)c8)c7n6)cn5)CC4)CC3)ccc2Cl)C(=O)N1
Activity (Jurkat [1]): inactive | Emax [3]: 1151.57 pg/mL | Activity (Jurkat [4]): inactive | Activity [17]: Non-toxic | Activity (MC-38 [20]): Active; Comparable To 100 Mg/Kg Dd203-1 Treatement Group | inhibition in vivo at 1 mg/kg (MC-38 [21]): 17.5% | inhibition in vivo at 0.5 mg/kg (MC-38 [22]): 51.4% | inhibition in vivo at 100 mg/kg (MC-38 [23]): 91% | Activity (MC-38 [24]): 667.6 mm3 | Activity (MC-38 [25]): 752.98 mm3 | Activity (MC-38 [26]): 139.92 mm3 | Activity (MC-38 [27]): 0.92 g | Activity (MC-38 [28]): 12.77% | Activity (MC-38 [29]): 86.54%
